Experimental data as given in ChEMBL document CHEMBL1201862, “PubChem BioAssay data set” (2004).
The source made the active and inactive calls.

Columns and labels:
[1] = A cytotoxicity screen of small molecule inhibitors of the PhoP region in Salmonella typhi identified in the primary screen. [Related pubchem assays: 1850, 1864, 1985 ]; type: functional
[2] = Luminescence Cell-Based Dose Response to Identify Activators of 5'UTR Stem-Loop Driven Prion Protein mRNA Translation in H4-C Neuroglioblastoma Cells. [Related pubchem assays: 1829 (Project Summary), 1814 (Primary HTS)]; type: functional
[3] = Luminescence Cell-Based Dose Confirmation HTS to Identify Activators of 5'UTR Stem-Loop Driven Alpha-Synuclein mRNA Translation in H4 Neuroglioblastoma Cells. [Related pubchem assays: 1829 (Project Summary), 1814 (Primary HTS)]; type: functional
[4] = Luminescence Cell-Based Dose Response HTS to Identify Activators of Luciferase Translation or Activity in H4 […] Cells. [Related pubchem assays: 1829 (Project Summary), 1814 (Primary HTS)]; type: functional
H4 = assay: Luminescence Cell-Based Dose Response HTS to Identify Activators of 5'UTR Stem-Loop Driven Prion Protein mRNA Translation in H4 Neuroglioblastoma Cells. [Related pubchem assays: 1829 (Project Summary), 1814 (Primary HTS)]; type: functional; conditions: Homo sapiens
[5] = Luminescence Cell-Based Dose Response to Identify Activators of Luciferase Translation or Activity in H4-C Neuroglioblastoma Cells. [Related pubchem assays: 1829 (Project Summary), 1814 (Primary HTS)]; type: functional
[6] = Luminescence Cell-Based Dose Confirmation to Identify Activators of 5'UTR Stem-Loop Driven Alpha-Synuclein mRNA Translation in H4 Neuroglioblastoma Cells. [Related pubchem assays: 1829 (Project Summary), 1814 (Primary HTS)]; type: functional
Estrogen receptor = target: T1, Estrogen receptor (Homo sapiens, UniProt P03372);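 note: potency for inhibiting coactivator peptide recruitment to the receptor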
T1 sequence (P03372 whole entry): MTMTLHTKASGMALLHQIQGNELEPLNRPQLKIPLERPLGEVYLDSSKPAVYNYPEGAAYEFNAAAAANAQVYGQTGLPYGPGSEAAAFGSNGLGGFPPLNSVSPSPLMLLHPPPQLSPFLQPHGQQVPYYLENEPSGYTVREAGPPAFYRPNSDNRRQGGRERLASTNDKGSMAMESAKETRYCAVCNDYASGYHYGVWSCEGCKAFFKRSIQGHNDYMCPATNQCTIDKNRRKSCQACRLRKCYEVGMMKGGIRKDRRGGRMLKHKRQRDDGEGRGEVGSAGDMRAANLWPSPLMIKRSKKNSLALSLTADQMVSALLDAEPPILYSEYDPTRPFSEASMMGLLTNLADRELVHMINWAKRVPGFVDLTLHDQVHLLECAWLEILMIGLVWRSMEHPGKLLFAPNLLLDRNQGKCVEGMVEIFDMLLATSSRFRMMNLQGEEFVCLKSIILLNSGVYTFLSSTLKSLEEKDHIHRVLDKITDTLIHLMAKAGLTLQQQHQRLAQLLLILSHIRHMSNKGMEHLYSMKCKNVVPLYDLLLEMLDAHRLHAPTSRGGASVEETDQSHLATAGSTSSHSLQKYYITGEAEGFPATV

[7] = Luminescence-based dose response cell-based high throughput screening assay for cytotoxic compounds using the IEC-6 intestinal epithelial cell line. [Related pubchem assays: 1858 (Summary AID.), 1825 (Counterscreen.), 1907 (Confirmation screen.)]; type: functional
[8] = HEp-2 cell cytotoxicity, dose response, cytotoxicity control for RSV inhibitor project, HTS (AID 2410); type: functional; conditions: human respiratory syncytial virus
[9] = HIV-1 Env-mediated cell fusion inhibitors, dose response, CCR5-tropic Env (AID 2279); type: functional
[10] = target: T2, Carboxy-terminal domain RNA polymerase II polypeptide A small phosphatase 1 (Homo sapiens, UniProt Q9GZU7); assay: inhibitors of CTDSP1, concentration-response testing, biochemical assay, absorbance-based, actives from ultra-high-throughput screening (AID 540297); type: functional
T2 sequence (Q9GZU7 whole entry): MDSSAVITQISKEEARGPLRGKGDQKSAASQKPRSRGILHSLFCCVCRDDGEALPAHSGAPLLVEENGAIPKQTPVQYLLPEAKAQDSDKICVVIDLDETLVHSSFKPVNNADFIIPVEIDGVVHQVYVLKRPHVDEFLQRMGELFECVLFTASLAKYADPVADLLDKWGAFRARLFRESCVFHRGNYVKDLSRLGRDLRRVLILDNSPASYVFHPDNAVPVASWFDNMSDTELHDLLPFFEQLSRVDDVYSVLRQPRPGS

[11] = target: T3, Heat shock factor protein 1 (Mus musculus, UniProt P38532); assay: inhibition of MG132-induced HSE-luciferase signal, confirmation, cell-based, NIH3T3, luminescence, dose retest (AID 2382); type: functional;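 note: NIH3T3 fibroblasts with HSF1-driven luciferase reporter stressed by proteasome inhibitor MG132; luminescence from HSF1-driven luciferase expression after 8 hours of MG132 stress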
T3 sequence (P38532 whole entry): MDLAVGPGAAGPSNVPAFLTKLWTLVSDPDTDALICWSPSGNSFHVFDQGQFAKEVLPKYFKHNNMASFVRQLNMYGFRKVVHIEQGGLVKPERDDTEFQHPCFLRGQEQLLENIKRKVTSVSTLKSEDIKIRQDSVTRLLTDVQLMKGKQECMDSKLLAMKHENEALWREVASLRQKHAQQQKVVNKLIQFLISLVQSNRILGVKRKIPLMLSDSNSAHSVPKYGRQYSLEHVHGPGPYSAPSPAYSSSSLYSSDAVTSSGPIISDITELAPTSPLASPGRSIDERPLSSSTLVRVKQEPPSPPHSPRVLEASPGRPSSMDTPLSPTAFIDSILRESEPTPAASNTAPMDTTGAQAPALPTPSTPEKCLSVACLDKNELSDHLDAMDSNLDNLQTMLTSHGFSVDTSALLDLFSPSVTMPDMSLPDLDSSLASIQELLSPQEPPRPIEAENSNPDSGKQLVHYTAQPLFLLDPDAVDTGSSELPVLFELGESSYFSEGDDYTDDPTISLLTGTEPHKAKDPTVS

[12] = A Cell Based Secondary Assay To Explore Cytotoxicity of Compounds that Sensitize Mycobacterium Tuberculosis to Beta-Lactam Antibiotics.; type: functional
[13] = target: T4, Calpain-2 catalytic subunit (Sus scrofa, UniProt P43367); assay: pig calpain II inhibitor potency, dose response, biochemical, fluorogenic peptide substrate (AID 1420); type: functional
T4 sequence (P43367 whole entry): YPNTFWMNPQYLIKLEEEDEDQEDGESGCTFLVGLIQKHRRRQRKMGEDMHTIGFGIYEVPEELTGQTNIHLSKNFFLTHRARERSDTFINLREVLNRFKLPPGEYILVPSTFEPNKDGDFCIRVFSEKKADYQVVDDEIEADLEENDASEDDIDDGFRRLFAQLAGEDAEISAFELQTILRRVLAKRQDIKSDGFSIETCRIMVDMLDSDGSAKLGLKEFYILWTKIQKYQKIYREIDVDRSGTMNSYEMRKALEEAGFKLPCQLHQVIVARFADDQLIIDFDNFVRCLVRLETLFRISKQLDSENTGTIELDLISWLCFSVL

[14] = target: T5, Mannose-6-phosphate isomerase (Homo sapiens, UniProt P34949); assay: human PMI inhibitors, high substrate, primary screen, biochemical, fluorescence intensity, high mannose 6-phosphate (AID 1220)
T5 sequence (P34949 whole entry): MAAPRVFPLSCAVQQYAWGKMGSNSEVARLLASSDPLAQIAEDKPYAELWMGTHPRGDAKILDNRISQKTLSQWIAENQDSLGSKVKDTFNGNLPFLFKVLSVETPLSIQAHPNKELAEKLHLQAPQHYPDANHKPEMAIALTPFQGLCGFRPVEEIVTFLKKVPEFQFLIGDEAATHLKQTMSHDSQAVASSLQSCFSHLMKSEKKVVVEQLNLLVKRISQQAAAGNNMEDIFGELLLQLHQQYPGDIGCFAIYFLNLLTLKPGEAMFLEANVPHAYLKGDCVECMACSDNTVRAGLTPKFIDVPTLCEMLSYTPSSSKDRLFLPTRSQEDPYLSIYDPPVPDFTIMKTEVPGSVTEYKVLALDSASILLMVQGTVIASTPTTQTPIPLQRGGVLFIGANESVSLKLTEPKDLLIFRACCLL

[15] = target: FAD-linked sulfhydryl oxidase ALR (Homo sapiens, UniProt P55789); assay: inhibitors of human ALR sulfhydryl oxidase, dose response, biochemical, H2O2 detection, luminescence, cherry-pick (AID 493248)
[16] = system: Streptococcus sp. 'group A'; assay: growth inhibition of control SK(-) GAS strain, dose response, counter-screen for streptokinase expression inhibitor project, luminescence, kanamycin, BacTiterGlo, confirmation (AID 1900); type: functional, organism-based
[17] = growth suppression of PTEN-null colon cells, dose response, cell-based, HCT116 PTEN knockout (AID 1047); type: functional;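 note: HCT116 colon tumor cells with PTEN knocked out; cells exposed to compound for 60 hours before readout; potency for loss of cell viability measured by luminescence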
[18] = growth suppression of beta-catenin-knockout colon cells, dose response, cell-based, HCT116, human colon tumor (AID 1045); type: functional;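 note: HCT116 colon tumor cells with beta catenin knocked out; cells exposed to compound for 60 hours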
Streptococcus = assay: Group A Streptococcus viability loss, dose response, counter-screen for streptokinase expression inhibitor project, luminescence, BacTiterGlo (AID 1915); type: functional, organism-based;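 note: potency for reduction of bacterial viability or growth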
INS1 = assay: beta cell apoptosis inhibitors, cytokine rescue, dose response, luminescence, retest (AID 449756); type: functional, cell-based; conditions: Rattus norvegicus;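 note: cell death triggered by IL-1 beta plus TNF-alpha plus IFN-gamma mixture; protective hits raise ATP signal compared with cytokine alone wells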
Aminopeptidase N = target: T6, Aminopeptidase N (Plasmodium falciparum FcB1/Columbia, UniProt O96935); assay: P. falciparum M1AAP inhibitors, biochemical, fluorogenic H-Leu-NHMec substrate, 1536-well (AID 1445); set-up: species or system Plasmodium falciparum 3D7, 3D7
T6 sequence (O96935 whole entry): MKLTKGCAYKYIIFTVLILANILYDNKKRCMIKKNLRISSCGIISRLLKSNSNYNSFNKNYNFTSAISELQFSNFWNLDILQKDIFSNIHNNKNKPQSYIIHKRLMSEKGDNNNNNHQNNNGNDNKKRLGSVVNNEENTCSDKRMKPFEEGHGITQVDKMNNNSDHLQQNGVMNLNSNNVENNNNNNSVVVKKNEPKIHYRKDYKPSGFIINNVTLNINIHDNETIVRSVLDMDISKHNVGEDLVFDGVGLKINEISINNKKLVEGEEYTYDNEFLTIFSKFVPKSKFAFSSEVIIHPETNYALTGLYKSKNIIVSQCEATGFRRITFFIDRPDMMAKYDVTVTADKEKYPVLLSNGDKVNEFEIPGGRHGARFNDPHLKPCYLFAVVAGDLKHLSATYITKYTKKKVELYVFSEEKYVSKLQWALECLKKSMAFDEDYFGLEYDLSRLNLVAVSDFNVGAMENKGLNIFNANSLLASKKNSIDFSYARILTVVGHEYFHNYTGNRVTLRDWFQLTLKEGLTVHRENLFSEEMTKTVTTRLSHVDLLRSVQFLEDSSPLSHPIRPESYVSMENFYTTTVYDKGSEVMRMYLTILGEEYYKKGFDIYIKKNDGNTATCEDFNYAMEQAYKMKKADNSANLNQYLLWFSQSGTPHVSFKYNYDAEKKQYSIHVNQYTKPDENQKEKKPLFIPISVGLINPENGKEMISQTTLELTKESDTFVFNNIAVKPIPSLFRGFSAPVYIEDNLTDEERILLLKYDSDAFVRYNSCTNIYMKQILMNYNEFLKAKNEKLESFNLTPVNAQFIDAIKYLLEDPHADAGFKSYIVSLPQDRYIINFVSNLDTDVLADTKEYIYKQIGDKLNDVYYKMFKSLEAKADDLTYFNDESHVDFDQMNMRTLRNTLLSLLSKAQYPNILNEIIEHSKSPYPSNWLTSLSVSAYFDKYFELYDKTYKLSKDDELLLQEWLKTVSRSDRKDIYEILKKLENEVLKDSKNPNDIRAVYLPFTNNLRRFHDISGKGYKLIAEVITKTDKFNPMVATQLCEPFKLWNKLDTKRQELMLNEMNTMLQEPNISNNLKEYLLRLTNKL

Vero = Vero cell cytotoxicity, cytotoxicity control for flavivirus capping enzyme inhibitors (AID 588742); type: functional; conditions: Chlorocebus sabaeus
Genome polyprotein = Genome polyprotein (dengue virus type 2, UniProt P29990); assay: Dengue-2 NS5 methyltransferase inhibitors, primary screen, biochemical, confirmation dose response (AID 588689); type: functional
Sequence of Genome polyprotein (P29990 2492-3391 limits assumed): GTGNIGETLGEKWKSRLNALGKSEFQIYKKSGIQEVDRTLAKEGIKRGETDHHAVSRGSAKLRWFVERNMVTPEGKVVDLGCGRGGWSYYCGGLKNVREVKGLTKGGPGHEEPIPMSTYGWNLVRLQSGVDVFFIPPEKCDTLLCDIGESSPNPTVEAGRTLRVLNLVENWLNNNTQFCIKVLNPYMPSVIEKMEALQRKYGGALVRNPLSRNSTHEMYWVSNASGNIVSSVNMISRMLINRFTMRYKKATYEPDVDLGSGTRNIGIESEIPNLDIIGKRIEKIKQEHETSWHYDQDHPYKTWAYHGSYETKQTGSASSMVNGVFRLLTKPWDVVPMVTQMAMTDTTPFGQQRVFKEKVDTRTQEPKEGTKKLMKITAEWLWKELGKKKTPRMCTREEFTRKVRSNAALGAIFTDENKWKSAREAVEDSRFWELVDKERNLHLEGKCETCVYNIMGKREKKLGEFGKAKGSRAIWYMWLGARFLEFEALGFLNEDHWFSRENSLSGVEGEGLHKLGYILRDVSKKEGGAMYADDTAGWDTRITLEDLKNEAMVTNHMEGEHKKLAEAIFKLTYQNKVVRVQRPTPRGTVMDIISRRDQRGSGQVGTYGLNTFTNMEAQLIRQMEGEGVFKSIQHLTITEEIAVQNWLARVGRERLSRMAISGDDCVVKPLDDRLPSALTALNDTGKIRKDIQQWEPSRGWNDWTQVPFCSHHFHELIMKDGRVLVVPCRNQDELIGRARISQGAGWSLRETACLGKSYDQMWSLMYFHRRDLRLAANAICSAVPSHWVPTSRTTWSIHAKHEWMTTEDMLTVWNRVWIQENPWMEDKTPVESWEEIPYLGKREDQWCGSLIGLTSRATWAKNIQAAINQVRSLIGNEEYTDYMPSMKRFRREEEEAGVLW

Sequence of FAD-linked sulfhydryl oxidase ALR (P55789 whole entry): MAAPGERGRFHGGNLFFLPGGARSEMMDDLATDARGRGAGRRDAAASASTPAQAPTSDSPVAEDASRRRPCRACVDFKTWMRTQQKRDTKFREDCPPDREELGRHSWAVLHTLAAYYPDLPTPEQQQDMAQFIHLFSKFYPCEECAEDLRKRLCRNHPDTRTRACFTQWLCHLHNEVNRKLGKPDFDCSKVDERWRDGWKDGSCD

Structure (SMILES): CCN=C(S)Nc1cccc(S(=O)(=O)Nc2ccccc2OC)c1
- EC50 [1]: > 50 µM (active)

Structure (SMILES): Cc1cc2nc(SCCN3CCOCC3)[nH]c2cc1C
- EC50 [2]: 0.61 µM (active)
- EC50 [3]: < 0.1 µM (active)
- EC50 [4]: 1.88 µM (active)
- EC50 (H4): 0.22 µM (active)
- EC50 [5]: 0.338 µM (active)
- EC50 [6]: 0.345 µM (active)

Structure (SMILES): COc1cccc(-c2nnc(NC(=O)Cc3cccs3)s2)c1
- IC50 (Estrogen receptor): 19.1 µM (active)

Structure (SMILES): CC(=O)c1c(N2CCN(c3cccc(Cl)c3)CC2)nc(=S)n(-c2ccccc2)c1C
- EC50 [1]: > 50 µM (active)

Structure (SMILES): OC1=C2C(=Nc3cc4c(cc3C2c2ccc(F)cc2)OCCO4)CO1 (configuration not stated)
- IC50 [7]: 0.0539 µM (active)

Structure (SMILES): COc1ccc(N(C(=O)c2cccnc2)S(=O)(=O)c2cccc([N+](=O)[O-])c2)cc1
- EC50 [1]: > 50 µM (active)

Structure (SMILES): COc1cc(/C=C2\C(=N)N3N=C(S(C)(=O)=O)SC3=NC2=O)ccc1OCCOc1ccccc1C
- CC50 [8]: 26.3 µM (active)
- IC50 [9]: 28.5 µM (active)
- IC50 [10]: 3.51 µM (active)

Structure (SMILES): CCn1c(C)cc(/C=C2/NC(=O)N(c3ccccc3)C2=O)c1C
- EC50 [2]: 0.505 µM (active)
- EC50 [4]: < 0.1 µM (active)
- EC50 (H4): > 120 µM (not active)
- EC50 [11]: > 195 µM (not active)
- EC50 [5]: 0.236 µM (active)
- EC50 [6]: 0.307 µM (active)

Structure (SMILES): O=C(CCNc1ccccc1)c1cccc([N+](=O)[O-])c1
- CC50 [12]: 25.6 µM (active)
- IC50 [13]: 14.1 µM (not active)
- IC50 [14]: 39.5 µM (active)
- AC50 [15]: 5.58 µM (active)

Structure (SMILES): C/C(=N/NC(=O)c1cccs1)c1c(C)[nH]n(-c2nc3ccccc3s2)c1=O
- EC50 [16]: 5.77 µM (active)
- CC50 [12]: 25.8 µM (active)
- EC50 [17]: 11.2 µM (active)
- EC50 [18]: 10.9 µM (active)
- EC50 (Streptococcus): 9.42 µM (active)
- AC50 (INS1): 7.34 µM (active)

Structure (SMILES): CSc1nnc(-c2ccccc2/N=C/c2c(C)nn(-c3ccc4ccccc4c3)c2O)c(O)n1
- IC50 (Aminopeptidase N): 31.9 µM (active)
- EC50 [3]: 9.56 µM (active)
- EC50 [4]: 8.3 µM (active)
- EC50 (H4): 46.3 µM (active)
- IC50 [9]: 3.61 µM (active)
- CC50 (Vero): > 40 µM (active)
- IC50 (Genome polyprotein): 37.5 µM (active)
